Data published in paper PMC10794144, “A novel antibiotic class targeting the lipopolysaccharide transporter” (Nature, 2024).
Converted amounts (≈) assume the structure as drawn. Where two headings read alike, the source gives them in different places. Marks after values point to notes of the source that are not given here.

Assays:
[1] = Mouse pharmacokinetics study, i.v. bolus; format: in vivo; conditions: male CD1 mice, 1 mg/kg IV; for Vss / t1/2, terminal plasma half-life: n = 3; for Cl: n = 3, LC-MS, non-compartmental
Description: Three male CD1 mice were administered with compound formulation (0.5 mg ml^−1 in 0.9% aqueous sodium chloride solution) as an intravenous bolus dose of 1 mg per kg. Blood was sampled at 0.08, 0.25, 0.5, 1, 2, 4, 7 and 24 h after administration and the blood collecting tubes were centrifuged for 5 min at 5,200g at room temperature to isolate the plasma supernatant. The concentrations of compound in the plasma were analysed using a liquid chromatography–mass spectrometry method with a calibration range of 5–10,000 ng ml^−1. The pharmacokinetic parameters were derived from the individual concentration data and were estimated by non-compartmental analysis.

E. coli ATCC 25922 = test: microbe, parasite or virus in culture; conditions: for RO7223280 MIC 100%: E. coli ATCC 25922, read at 100%
How it was run: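 Broth microdilution following CLSI M07 and M100. Inocula were diluted from a 0.5 McFarland suspension in CAMHB. MIC is the lowest compound concentration inhibiting visible growth, or beyond which OD600 ceased to decrease.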

[2] = Five-day repeat dose tolerability study; format: in vivo, rat; conditions: for Clinical observations: male Wistar rats, n = 4; for Clinical chemistry / Coagulation / Haematology: 5 days; for MTD: slow IV once daily for 5 days
Description: Assessment of tolerability was based on mortality, in-life observations, body weight, food consumption and clinical pathology during the in-life phase. Moreover, gross pathology and histopathology were performed at unscheduled or scheduled euthanasia on day 6.

hERG = hERG (Homo sapiens, UniProt Q12809); test: hERG
panel of 50 off-targets = test: Off-target activity screening, number of hits in panel of 50; format: binding; conditions: > 30% inhibition at 10 μM
GSH adduct = format: in vitro ADME
[3] = Human whole blood haemolysis assay; conditions: human heparinated blood, 10 min 37 °C
Description: For the in vitro haemolysis test, blood was provided by Roche medical services through an anonymous blood donation for research program, approved by the Ethics Committee Northwestern Switzerland and Central Switzerland (EKNZ) and collected with informed consent. Blood was collected by venipuncture in ethylenediaminetetraacetic acid (EDTA) and Li-heparin-coated tubes. Plasma was prepared from anticoagulated blood by centrifugation (2,500g; 10 min; at room temperature) and the haematocrit was measured to ensure that it was within normal reference values. Each formulation of compound in saline was added at a concentration of 8 mg ml^−1 into test tubes containing exactly 0.5 ml of heparinated blood to give a final assay volume of 1 ml and a concentration of 4 mg ml^−1 or less (following further dilutions). After incubation in a water bath for 10 min at 37 °C, the tubes were centrifuged (10 min, 1,811g at room temperature) and 100 μl of the supernatant was subsequently transferred into test tubes containing 5 ml Drabkins solution (RANDOX Laboratories) and 1 ml phosphate buffer. Haemoglobin was photometrically determined at 540 nm according to the RANDOX test-kit instructions. The results were expressed as percentage haemolysis extrapolated from an internal standard curve with 0%, 50% and 100% haemolysed blood samples.

[4] = test system: GSK-3A (second line so named); test: Off-target screening (CEREP); format: biochemical, human; conditions: 10 µM, duplicates
Description: (§1) Supplementary Table 1 │ Off-target activity screening f or MCP compou nds […]
(§2) The assays given in the table above were conducted at Eurofins CEREP S A (Celle-Lévescault, France) and were run as single point measurements in duplicates in the presence of 10 µ M of the test compound and reported as percent inhibition of the radioligand signal or control enzymatic activity. n.d., not

A. baumannii = test: Neutropaenic mouse thigh infection model; format: in vivo; conditions: for Bacterial Load (average): A. baumannii ACC01085, neutropenic mice, 24 h, summary table, same as average Log CFU/Thigh
Description: An intramuscular inoculation of a bacterial suspension of approximately 10^6 CFU per thigh was used to induce the infection. Treatment started 2 h after infection. […] In the pneumonia model, an intratracheal inoculation of approximately 10^7 CFU per lung was used to induce the infection. Treatment started 2 h after infection. […] Standard of care antibiotic was tested at a single dose in both infection models. GraphPad Prism 8 was used for graphical presentation and to analyse data.

PCP receptor = test: Off-target screening (CEREP); format: binding, rat; conditions: 10 µM, duplicates
Description: as §1, §2

[5] = test system: GABA Cl- channel receptor; test: Off-target screening (CEREP); format: binding, rat; conditions: 10 µM, duplicates
Description: as §1, §2

[6] = test system: Ca2+ channel (diltiazem site); test: Off-target screening (CEREP); format: binding, rat; conditions: 10 µM, duplicates
Description: as §1, §2

CYP2D6 = CYP2D6 (Homo sapiens, UniProt P10635); test: CYP inhibition; format: in vitro ADME
C. albicans ATCC 90028 = conditions: for RO7223280 MIC 100%: C. albicans ATCC 90028, read at 100%
[7] = Fraction unbound in mouse plasma; format: in vitro ADME
[8] = 0.6 mg/kg slow IV once daily for 5 days
[9] = 6 mg/kg slow IV once daily for 5 days

Sequence of hERG (Q12809 whole entry): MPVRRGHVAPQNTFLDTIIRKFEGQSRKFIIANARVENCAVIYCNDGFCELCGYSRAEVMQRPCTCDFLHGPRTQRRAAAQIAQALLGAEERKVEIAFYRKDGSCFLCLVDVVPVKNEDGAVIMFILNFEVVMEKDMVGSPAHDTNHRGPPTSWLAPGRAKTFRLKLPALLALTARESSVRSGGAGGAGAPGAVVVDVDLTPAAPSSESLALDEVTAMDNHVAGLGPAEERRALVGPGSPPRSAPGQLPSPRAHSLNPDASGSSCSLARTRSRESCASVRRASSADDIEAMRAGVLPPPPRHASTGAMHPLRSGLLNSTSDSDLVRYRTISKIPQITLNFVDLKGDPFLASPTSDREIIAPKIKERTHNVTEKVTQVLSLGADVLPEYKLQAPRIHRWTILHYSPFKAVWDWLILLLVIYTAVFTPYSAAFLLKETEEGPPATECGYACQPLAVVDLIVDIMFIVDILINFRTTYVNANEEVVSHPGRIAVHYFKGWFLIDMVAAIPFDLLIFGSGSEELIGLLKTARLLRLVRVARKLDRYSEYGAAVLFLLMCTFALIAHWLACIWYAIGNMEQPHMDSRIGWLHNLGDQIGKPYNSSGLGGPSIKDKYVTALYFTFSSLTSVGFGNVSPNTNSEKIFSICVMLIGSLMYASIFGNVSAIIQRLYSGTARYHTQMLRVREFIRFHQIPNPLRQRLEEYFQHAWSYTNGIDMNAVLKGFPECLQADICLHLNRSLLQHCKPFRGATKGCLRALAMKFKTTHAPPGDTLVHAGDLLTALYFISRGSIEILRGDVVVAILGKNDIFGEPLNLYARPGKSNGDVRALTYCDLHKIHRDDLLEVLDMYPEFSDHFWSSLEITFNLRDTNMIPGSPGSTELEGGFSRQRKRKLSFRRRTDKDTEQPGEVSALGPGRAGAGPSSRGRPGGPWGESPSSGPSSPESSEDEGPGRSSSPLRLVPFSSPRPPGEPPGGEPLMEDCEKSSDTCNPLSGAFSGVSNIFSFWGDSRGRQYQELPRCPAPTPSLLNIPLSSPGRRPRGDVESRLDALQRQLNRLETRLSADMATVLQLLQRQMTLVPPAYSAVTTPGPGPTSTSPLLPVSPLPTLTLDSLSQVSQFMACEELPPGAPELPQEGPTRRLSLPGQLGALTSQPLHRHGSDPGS
Sequence of CYP2D6 (P10635 whole entry): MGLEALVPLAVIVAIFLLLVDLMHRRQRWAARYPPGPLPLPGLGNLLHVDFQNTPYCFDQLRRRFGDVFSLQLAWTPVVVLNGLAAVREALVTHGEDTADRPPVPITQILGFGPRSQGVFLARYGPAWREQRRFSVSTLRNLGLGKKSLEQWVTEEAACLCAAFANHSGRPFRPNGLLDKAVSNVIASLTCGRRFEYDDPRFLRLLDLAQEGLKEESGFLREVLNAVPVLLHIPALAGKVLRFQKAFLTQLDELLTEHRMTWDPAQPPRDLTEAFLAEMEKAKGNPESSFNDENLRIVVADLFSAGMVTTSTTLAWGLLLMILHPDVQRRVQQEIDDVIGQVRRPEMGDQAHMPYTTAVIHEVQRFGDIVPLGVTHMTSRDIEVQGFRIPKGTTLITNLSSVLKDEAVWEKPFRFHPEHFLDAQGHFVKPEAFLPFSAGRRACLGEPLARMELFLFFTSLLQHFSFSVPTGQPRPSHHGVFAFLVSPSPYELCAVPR

CN1C(=O)[C@H](CCCCN)NC(=O)[C@H](CCCN)NCc2cccnc2Sc2c(Cl)ccc(Cl)c2CNC(=O)[C@@H]1Cc1c[nH]c2ccccc12 [RO7075573]
Vss [1]: 0.3 L/kg | t1/2, terminal plasma half-life [1]: 2 h | Cl [1]: 5.7 mL/min/kg | MIC (E. coli ATCC 25922; CAMHB, mode of at least three replicates (RO7036668 one replicate)): >64 µg/mL | MIC (E. coli ATCC 25922; Escherichia coli, ATCC25922): > 64 µg/mL | MIC 100% (E. coli ATCC 25922; Study LGC281440): >64 µg/mL | MIC 100% (E. coli ATCC 25922; Study LGC282160): >64 µg/mL | MIC 100% (E. coli ATCC 25922; Study LGC284879): >64 µg/mL | MIC 100% (E. coli ATCC 25922; Study LGC285582): >64 µg/mL | MIC 100% (E. coli ATCC 25922; Study LGC286210): >64 µg/mL | MIC 100% (E. coli ATCC 25922; Study LGC293598): >64 µg/mL | MIC 100% (E. coli ATCC 25922; Study LGC294355): >64 µg/mL | MIC 100% (E. coli ATCC 25922; Study LGC295147): >64 µg/mL | MIC 100% (E. coli ATCC 25922; Study LGC296813): >64 µg/mL | MIC 100% (E. coli ATCC 25922; Study LGC299544): >64 µg/mL | MIC 100% (E. coli ATCC 25922; Study LGC301026): >64 µg/mL | MIC 100% (E. coli ATCC 25922; Study LGC308175): >64 µg/mL | MIC 100% (E. coli ATCC 25922; Study ROC010): >64 µg/mL | MIC 100% (E. coli ATCC 25922; Study ROC012): >64 µg/mL | Clinical observations [2, 8]: Slightly discolored tail after dosing | Clinical observations [2, 9]: Slightly discolored tail after dosing, red extremities on D2 after dosing, prone posture, rolling gait, hypoactivity, laboured respiration, reduced food consumption – euthanized for humane reasons D2 | Clinical chemistry ([2]; rats, 0.6 mg/kg IV): No relevant changes | Coagulation ([2]; rats, 0.6 mg/kg IV): No change | Haematology ([2]; rats, 0.6 mg/kg IV): No change | Clinical chemistry ([2]; rats, 6 mg/kg IV): Decreased HDL, triglyceride, cholesterol. Increased GLDH, AST and ALAT, CK, BUN, creatine, phosphorus, haptoglobin | Coagulation ([2]; rats, 6 mg/kg IV): Decreased prothrombin time and increased aPTT | Haematology ([2]; rats, 6 mg/kg IV): Decrease in haemoglobin and haematocrit, increase in neutrophils | Decrease in lipid parameters (cholesterol, triglycerides, HDL) ([2]; rats, after intravenous administration): > 40% | MTD ([2]; rats): 0.6 mg/kg | IC50 (hERG): > 10 µM | hERG IC20 (hERG): 4 µM | Off-target hits (panel of 50 off-targets): 1 # | GSH adduct (GSH adduct): Clean | Haemolysis ([3]; 4 mg/mL, haemoglobin at 540 nm): 37% | MNT (Micronucleus test (MNT)): Negative | percent inhibition [4]: 10% | Decrease in thigh bacterial burden (A. baumannii; ACC00535, neutropaenic mice, s.c. every 4 h for 24 h): > 4 log CFU | percent inhibition (PCP receptor): -10% | percent inhibition [5]: -9% | percent inhibition [6]: -1% | CYP inh. (2D6) (CYP2D6): > 50 µM | MIC 100% (C. albicans ATCC 90028; Study LGC281440): 64 µg/mL (≈ 86.5 µM) | MIC 100% (C. albicans ATCC 90028; Study LGC282160): >64 µg/mL | MIC 100% (C. albicans ATCC 90028; Study LGC284879): >64 µg/mL | MIC 100% (C. albicans ATCC 90028; Study LGC285582): >64 µg/mL | MIC 100% (C. albicans ATCC 90028; Study LGC286210): >64 µg/mL | MIC 100% (C. albicans ATCC 90028; Study LGC293598): >64 µg/mL | MIC 100% (C. albicans ATCC 90028; Study LGC294355): >64 µg/mL | MIC 100% (C. albicans ATCC 90028; Study LGC295147): >64 µg/mL | MIC 100% (C. albicans ATCC 90028; Study LGC296813): >64 µg/mL | MIC 100% (C. albicans ATCC 90028; Study LGC299544): >64 µg/mL | MIC 100% (C. albicans ATCC 90028; Study LGC301026): >64 µg/mL | MIC 100% (C. albicans ATCC 90028; Study LGC308175): >64 µg/mL | MIC 100% (C. albicans ATCC 90028; Study ROC010): >64 µg/mL | MIC 100% (C. albicans ATCC 90028; Study ROC012): >64 µg/mL | fu (m), fraction unbound in mouse plasma [7]: 17%

CN1C(=O)[C@H](CCCCN)NC(=O)[C@H](CCCN)NCc2cccnc2Sc2cccc(-c3ccc(C(=O)O)cc3)c2CNC(=O)[C@@H]1Cc1c[nH]c2ccccc12 [zosurabalpin]
Vss [1]: 0.7 L/kg | t1/2, terminal plasma half-life [1]: 0.3 h | Cl [1]: 51 mL/min/kg | RO7223280 MIC 100% (E. coli ATCC 25922; Study LGC296813): >64 µg/mL | RO7223280 MIC 100% (E. coli ATCC 25922; Study LGC299544): >64 µg/mL | RO7223280 MIC 100% (E. coli ATCC 25922; Study LGC308175): >64 µg/mL | MIC (E. coli ATCC 25922; Escherichia coli, ATCC25922): > 64 µg/mL | Clinical observations [2, 8]: Transiently discolored tail after dosing | Clinical observations [2, 9]: Transiently discolored tail after dosing, body weight loss | Clinical chemistry ([2]; rats, 0.6 mg/kg IV): No relevant changes | Coagulation ([2]; rats, 0.6 mg/kg IV): No change | Haematology ([2]; rats, 0.6 mg/kg IV): No change | Clinical chemistry ([2]; rats, 6 mg/kg IV): Minimally increased BUN, creatine. Minimally decreased phosphorus | Coagulation ([2]; rats, 6 mg/kg IV): No change | Haematology ([2]; rats, 6 mg/kg IV): No change | MTD ([2]; rats): 6 mg/kg | IC50 (hERG): > 20 µM | hERG IC20 (hERG): > 10 µM | Off-target hits (panel of 50 off-targets): 0 # | GSH adduct (GSH adduct): Clean | Haemolysis [3]: None | MNT (Micronucleus test (MNT)): Negative | percent inhibition [4]: -3% | Bacterial Load (average) (A. baumannii; 6 mg/kg/day q6h): 8.75 | Bacterial Load (average) (A. baumannii; 20 mg/kg/day q6h): 7.85 | Bacterial Load (average) (A. baumannii; 60 mg/kg/day q6h): 7.41 | Bacterial Load (average) (A. baumannii; 100 mg/kg/day q6h): 6.21 | Bacterial Load (average) (A. baumannii; 160 mg/kg/day q6h): 4.10 | Bacterial Load (average) (A. baumannii; 240 mg/kg/day q6h): 3.37 | Bacterial Load (average) (A. baumannii; 360 mg/kg/day q6h): 3.09 | percent inhibition (PCP receptor): -24% | percent inhibition [5]: 1% | percent inhibition [6]: -11% | CYP inh. (2D6) (CYP2D6): >50 (3A4) >50 (2C9) >50 (2D6) μM | RO7223280 MIC 100% (C. albicans ATCC 90028; Study LGC296813): >64 µg/mL | RO7223280 MIC 100% (C. albicans ATCC 90028; Study LGC299544): >64 µg/mL | RO7223280 MIC 100% (C. albicans ATCC 90028; Study LGC308175): >64 µg/mL | fu (m), fraction unbound in mouse plasma [7]: 37%
